Read-outs that look alike come from different tables or passages of the source.
Experiments:
[1] = biological target: recombinant RSV complex (Human respiratory syncytial virus A, UniProt P28887); assay: RSV Polymerase Inhibition Assay; type: biochemical
In short: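 Inhibition measured as reduced incorporation of radiolabel into RNA products, detected by scintillation counting. Reactions: recombinant RSV complex (10 nM), RNA oligonucleotides, Tris-HCl pH 7.5, 6 mM MgCl2, inhibitor titration, 2 h at 30 °C, EDTA stop.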

[2] = Cytotoxicity Determination (CCK-8, without addition of virus); type: cell-based; settings: human, 50% cytotoxicity concentration (CC50)
In short: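 Cytotoxicity was measured by CCK-8 after 3-4 hours at 37 °C, following 5 days of uninfected exposure at 37 °C and 5% CO2. Compounds ran as duplicate 7-point 1/2 dilutions starting at 100 μM, with 1% final DMSO. HEp-2 cells had been plated at 1,500/well the day before.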

[3] = system: RSV replicon; assay: microbe, parasite or virus in culture; type: cell-based; settings: human respiratory syncytial virus, read-out: EC50, the concentration of the drug required for reducing RSV replicon RNA by 50%
Protocol: The Renilla Luciferase Assay System (Promega, Cat. #E2820) was used to measure anti-RSV replicon activity. […] Luminescence was recorded using a Perkin Elmer multilabel counter Victor3V. EC50, the concentration of the drug required for reducing RSV replicon RNA by 50% in relation to the untreated cell control value, was calculated from the plot of percentage reductions of the optical density (OD) value against the drug concentrations using the Microsoft Excel forecast function.

[4] = system: Respiratory Syncytial Virus (RSV) long strain; assay: microbe, parasite or virus in culture; type: cell-based; settings: human respiratory syncytial virus, Tables A and B list compounds by EC50 band
In short: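 CPE-reduction format: viability measured colorimetrically with CCK-8 (450 nm, 630 nm reference) after 3-4 h, following 5-day infection at 37 °C, 5% CO2. Cells were HEp-2; inoculum 100 TCID50/well; duplicate 9-point 1/3 series starting at 100 μM or 1 μM.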

[5] = HEp-2, 120 h, read-out: 50% effective concentration (EC50), HEp-2 cells infected with RSV long strain, 5 days, CCK-8 readout
[6] = 120 h, read-out: 50% effective concentration (EC50), HEp-2 cells infected with RSV long strain, 5 days, CCK-8 readout

Chain of recombinant RSV complex (P28887 whole entry): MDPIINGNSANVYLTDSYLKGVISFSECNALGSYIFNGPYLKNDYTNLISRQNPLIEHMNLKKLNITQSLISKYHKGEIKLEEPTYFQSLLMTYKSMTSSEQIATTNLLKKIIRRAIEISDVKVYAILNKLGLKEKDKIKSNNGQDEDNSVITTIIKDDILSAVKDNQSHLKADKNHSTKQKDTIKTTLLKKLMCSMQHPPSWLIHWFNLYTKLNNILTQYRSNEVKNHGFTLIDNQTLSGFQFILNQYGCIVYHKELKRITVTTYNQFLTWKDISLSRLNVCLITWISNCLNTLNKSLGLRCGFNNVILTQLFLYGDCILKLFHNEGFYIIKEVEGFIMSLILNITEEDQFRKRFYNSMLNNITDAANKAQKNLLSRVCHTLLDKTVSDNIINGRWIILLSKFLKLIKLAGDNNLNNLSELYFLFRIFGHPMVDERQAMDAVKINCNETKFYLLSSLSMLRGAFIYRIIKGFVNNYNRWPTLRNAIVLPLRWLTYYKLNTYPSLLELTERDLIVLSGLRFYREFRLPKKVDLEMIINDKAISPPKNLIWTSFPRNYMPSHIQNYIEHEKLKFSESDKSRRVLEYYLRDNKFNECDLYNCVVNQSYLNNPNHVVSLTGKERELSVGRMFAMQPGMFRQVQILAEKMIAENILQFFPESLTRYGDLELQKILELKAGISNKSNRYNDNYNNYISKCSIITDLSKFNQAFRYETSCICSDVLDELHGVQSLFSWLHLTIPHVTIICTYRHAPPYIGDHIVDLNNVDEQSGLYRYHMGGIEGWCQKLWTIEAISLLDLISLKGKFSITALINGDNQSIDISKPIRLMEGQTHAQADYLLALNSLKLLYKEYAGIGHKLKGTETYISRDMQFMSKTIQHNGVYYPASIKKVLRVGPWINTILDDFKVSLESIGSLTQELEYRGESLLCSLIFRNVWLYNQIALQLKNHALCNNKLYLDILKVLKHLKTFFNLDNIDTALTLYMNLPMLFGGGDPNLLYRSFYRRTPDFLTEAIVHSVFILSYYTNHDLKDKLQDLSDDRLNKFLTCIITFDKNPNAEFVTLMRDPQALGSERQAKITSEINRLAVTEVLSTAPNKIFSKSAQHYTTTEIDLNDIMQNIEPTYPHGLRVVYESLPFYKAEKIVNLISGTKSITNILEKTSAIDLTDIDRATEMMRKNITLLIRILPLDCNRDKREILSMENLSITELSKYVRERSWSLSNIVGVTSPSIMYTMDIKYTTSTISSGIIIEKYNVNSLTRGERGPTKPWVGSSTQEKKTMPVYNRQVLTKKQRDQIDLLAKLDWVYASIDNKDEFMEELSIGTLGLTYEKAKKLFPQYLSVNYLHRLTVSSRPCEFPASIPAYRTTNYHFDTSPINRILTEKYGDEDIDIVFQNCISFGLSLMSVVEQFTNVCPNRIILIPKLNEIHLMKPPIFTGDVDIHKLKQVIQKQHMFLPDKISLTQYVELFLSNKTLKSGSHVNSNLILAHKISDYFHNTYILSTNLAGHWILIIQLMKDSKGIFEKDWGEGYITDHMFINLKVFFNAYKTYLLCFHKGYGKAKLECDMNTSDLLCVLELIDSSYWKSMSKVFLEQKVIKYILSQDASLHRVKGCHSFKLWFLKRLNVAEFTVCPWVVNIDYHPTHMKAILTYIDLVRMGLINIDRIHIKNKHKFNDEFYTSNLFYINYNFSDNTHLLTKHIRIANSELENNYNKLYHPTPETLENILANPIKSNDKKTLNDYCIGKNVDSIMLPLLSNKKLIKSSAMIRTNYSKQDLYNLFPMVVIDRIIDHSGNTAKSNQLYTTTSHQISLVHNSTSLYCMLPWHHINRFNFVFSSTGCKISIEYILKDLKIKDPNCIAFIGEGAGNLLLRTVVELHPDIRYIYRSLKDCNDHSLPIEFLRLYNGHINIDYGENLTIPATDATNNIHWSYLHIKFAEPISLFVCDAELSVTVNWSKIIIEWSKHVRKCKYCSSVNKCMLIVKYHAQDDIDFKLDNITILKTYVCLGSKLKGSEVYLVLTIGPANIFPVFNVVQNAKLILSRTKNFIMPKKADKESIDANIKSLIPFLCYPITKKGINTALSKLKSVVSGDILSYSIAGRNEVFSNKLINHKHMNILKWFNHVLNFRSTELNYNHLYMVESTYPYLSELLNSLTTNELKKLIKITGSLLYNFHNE
Chain of recombinant RSV complex (P03421 whole entry, further chain): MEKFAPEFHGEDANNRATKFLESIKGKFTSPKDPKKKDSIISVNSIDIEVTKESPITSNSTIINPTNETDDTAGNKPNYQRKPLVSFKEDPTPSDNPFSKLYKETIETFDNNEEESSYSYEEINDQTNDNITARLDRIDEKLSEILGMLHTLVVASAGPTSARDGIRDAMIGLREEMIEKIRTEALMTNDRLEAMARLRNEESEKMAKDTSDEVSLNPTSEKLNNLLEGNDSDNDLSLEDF

Row | Structure (SMILES) | IC50 [1] | CC50 at 5 days [2] | EC50 [3] | EC50 [4, 5] | EC50 [4, 6]
1 | COc1cc(C(=O)NCC(C)(O)c2cc3c(c(-c4c[nH]c5c(F)cccc45)n2)OCC3(C)C)ccc1OCCF (stereo not shown) [Compound 228] | < 1000 nM | > 100000 nM | < 1000 nM | < 1000 nM | –
2 | COc1cc(C(=O)NCC(O)(c2cc(C(C)(N)CF)cc(-c3ccc(F)cc3)n2)C(F)(F)F)ccc1OCC(N)=O (stereo not shown) [Compound 615] | < 1000 nM | > 100000 nM | < 1000 nM | < 1000 nM | –
3 | CCC(O)(CNC(=O)c1ccc(OCCF)c(OC)c1)c1ccc(OC)c(-c2ccc(F)c(Cl)c2)n1 (single isomer, unassigned) [Compound 122a] | < 1000 nM | 10000 to 100000 nM | < 1000 nM | < 1000 nM | –
4 | COc1cc(C(=O)NCC(O)(c2cc(C3(N)CC3)cc(-c3ccc(F)cc3)n2)C(F)(F)F)ccc1OC[C@@H](C)O (stereo partly shown) [Compound 598] | < 1000 nM | 10000 to 100000 nM | < 1000 nM | < 1000 nM | –
5 | COc1cc(C(=O)NCC(O)(c2cc3c(c(-c4ccc(F)c(F)c4)n2)OCC3(C)N)C(F)(F)F)ccc1OCCO (stereo not shown) [Compound 663] | < 1000 nM | 10000 to 100000 nM | < 1000 nM | < 1000 nM | –
6 | COc1cc(C(=O)NCC(O)(c2ccc(OC)c(-c3ccc(F)c(Cl)c3)n2)C2CC2)ccc1OC(C)(F)F (stereo not shown) [Compound 437] | < 1000 nM | 10000 to 100000 nM | < 1000 nM | 1000 to 50000 nM | –
7 | COc1cc(C(=O)NCC(=O)c2cc3c(c(-c4ccc(F)c(C(C)F)c4)n2)OCCC3(C)C)ccc1OCCO (stereo not shown) [Compound 298] | < 1000 nM | 10000 to 100000 nM | < 1000 nM | < 1000 nM | –
8 | COc1ccc(C(O)(CO)CNC(=O)c2cc(OC)c3ncccc3c2)nc1-c1ccc(F)c(Cl)c1 (stereo not shown) [Compound 453] | < 1000 nM | 10000 to 100000 nM | < 1000 nM | < 1000 nM | –
9 | COc1cc(C(=O)NCC(O)(c2cc(C(N)CO)cc(-c3ccc(F)c(Cl)c3)n2)C(F)(F)F)ccc1OC1CC1 (stereo not shown) [Compound 528] | < 1000 nM | 10000 to 100000 nM | < 1000 nM | < 1000 nM | –
10 | CCOc1ccc(C(=O)NCC(C)(O)c2ccc(OC)c(-c3c[nH]c4c(F)cccc34)n2)cc1OC (racemic) [Compound 116] | < 1000 nM | 10000 to 100000 nM | < 1000 nM | < 1000 nM | –
11 | COc1cc(C(=O)NCC(O)(c2ccc(OC)c(-c3ccc(F)c(Cl)c3)n2)C(F)(F)F)ccc1OCC(F)F (stereo not shown) [Compound 373] | < 1000 nM | > 100000 nM | < 1000 nM | < 1000 nM | –
12 | COc1cc(C(=O)NCC(O)(c2cc3c(c(-c4ccc(F)c(Cl)c4)n2)OCCC3(C)C)C(F)(F)F)ccc1OC[C@@H](C)O (stereo partly shown) [Compound 346] | – | 10000 to 100000 nM | < 1000 nM | < 1000 nM | –
13 | COc1cc(C(=O)NCC(O)(CO)c2ccc(OC)c(-c3ccc(F)c(Cl)c3)n2)ccc1OCCO (stereo not shown) [Compound 176] | < 1000 nM | > 100000 nM | < 1000 nM | < 1000 nM | –
14 | CNc1cc(-c2ccc(F)c(Cl)c2)nc(C(O)(CNC(=O)c2ccc(OC3CC3)c(OC)c2)C(F)(F)F)c1 (stereo not shown) [Compound 448] | < 1000 nM | 10000 to 100000 nM | < 1000 nM | < 1000 nM | –
15 | COc1cc(C(=O)NCC(O)(c2ccc(OC)c(-c3ccc(F)c(Cl)c3)n2)C(C)O)ccc1OC1CC1 (stereo not shown) [Compound 454] | < 1000 nM | 10000 to 100000 nM | < 1000 nM | < 1000 nM | –
16 | CCNC(C)(C)c1cc(-c2ccc(F)cc2)nc(C(O)(CNC(=O)c2ccc(OC3CC3)c(OC)c2)C(F)(F)F)c1 (stereo not shown) [Compound 388] | < 1000 nM | 10000 to 100000 nM | < 1000 nM | < 1000 nM | –
17 | CNC(C)(C)c1cc(-c2ccc(F)c(Cl)c2)nc(C(O)(CNC(=O)c2ccc(OC[C@@H](C)O)c(OC)c2)C(F)(F)F)c1 (stereo partly shown) [Compound 486] | < 1000 nM | 10000 to 100000 nM | < 1000 nM | < 1000 nM | –
18 | COc1cc(C(=O)NCC(O)(c2cc3c(c(-c4ccc(F)c(Cl)c4)n2)OCC3(C)C)C(F)(F)F)ccc1OCC(C)O (stereo not shown) [Compound 211] | < 1000 nM | 10000 to 100000 nM | < 1000 nM | < 1000 nM | –
19 | COc1cc(C(=O)NC[C@](O)(c2cc(C(C)(C)N)cc(-c3ccc(C#N)cc3)n2)C(F)(F)F)ccc1OC[C@@H](C)O [Compound 624b] | < 1000 nM | > 100000 nM | < 1000 nM | < 1000 nM | –
20 | COc1cc(C(=O)NCC(O)(c2cc(C(C)(C)NCCF)cc(-c3ccc(F)c(Cl)c3)n2)C(F)(F)F)ccc1OC1CC1 (stereo not shown) [Compound 356] | < 1000 nM | 10000 to 100000 nM | < 1000 nM | < 1000 nM | –

Row | Structure (SMILES) | IC50 [1] | CC50 at 5 days [2] | EC50 [3] | EC50 [4, 5] | EC50 [4, 6]
21 | COc1cc(C(=O)NCC(O)(c2cc([C@]3(C)CCN3)cc(-c3ccc(F)cc3)n2)C(F)(F)F)ccc1OCCO (stereo partly shown) [Compound 650] | < 1000 nM | 10000 to 100000 nM | < 1000 nM | – | < 1000 nM
22 | COc1cc(C(=O)NCC(C)(O)c2cccc(-c3csc4c(F)cccc34)n2)ccc1OCCO (stereo not shown) [Compound 143] | < 1000 nM | 10000 to 100000 nM | < 1000 nM | < 1000 nM | –
23 | COc1cc(C(=O)NCC(O)(Cn2ccnc2)c2ccc(OC)c(-c3ccc(F)c(Cl)c3)n2)ccc1OCCO (stereo not shown) [Compound 191] | < 1000 nM | > 100000 nM | < 1000 nM | < 1000 nM | –
24 | COc1cc(C(=O)NCC(O)(c2ccc(OC)c(-c3ccc(F)c(Br)c3)n2)C(F)(F)F)ccc1OCC(N)=O (stereo not shown) [Compound 443] | < 1000 nM | 10000 to 100000 nM | < 1000 nM | < 1000 nM | –
25 | CCC1(N)COc2c1cc(C(O)(CNC(=O)c1ccc(OC3CC3)c(OC)c1)C(F)(F)F)nc2-c1ccc(F)cc1 (stereo not shown) [Compound 531] | < 1000 nM | 10000 to 100000 nM | < 1000 nM | < 1000 nM | –
26 | COc1cc(C(=O)NCC(O)(c2ccc(CN)c(-c3ccc(F)cc3)n2)C(F)(F)F)ccc1OC1CC1 (stereo not shown) [Compound 514] | < 1000 nM | 10000 to 100000 nM | < 1000 nM | < 1000 nM | –
27 | COc1cc(C(=O)NCC(O)(c2cc(C(C)(C)NCCO)cc(-c3ccc(F)c(Cl)c3)n2)C(F)(F)F)ccc1OC1CC1 (stereo not shown) [Compound 502] | < 1000 nM | 10000 to 100000 nM | < 1000 nM | < 1000 nM | –
28 | COc1cc(C(=O)NC[C@](O)(c2cc(C(C)(C)N)cc(-c3ccc(F)c(Cl)c3)n2)C(F)(F)F)ccc1OC[C@@H](C)O [Compound 552] | < 1000 nM | 10000 to 100000 nM | < 1000 nM | < 1000 nM | –
29 | COc1cc(C(=O)NCC(F)(CO)c2ccc(OC)c(-c3ccc(F)c(Cl)c3)n2)ccc1OC1CC1 (stereo not shown) [Compound 385] | < 1000 nM | 10000 to 100000 nM | < 1000 nM | < 1000 nM | –
30 | COc1cc(C(=O)NCC(C)(F)c2ccc(OC)c(-c3ccc(F)c(Cl)c3)n2)ccc1OCCO (stereo not shown) [Compound 365] | < 1000 nM | 10000 to 100000 nM | < 1000 nM | < 1000 nM | –
31 | COc1ccc(C(O)(CNC(=O)c2ccc(OCCO)c(Cl)c2)C2CC2)nc1-c1ccc(F)c(Cl)c1 (stereo not shown) [Compound 425] | < 1000 nM | 10000 to 100000 nM | < 1000 nM | < 1000 nM | –
32 | COc1cc(C(=O)NCC(C)(O)c2ccc(OC)c(-c3ccc(F)c(Br)c3)n2)ccc1OCCF (racemic) [Compound 118] | < 1000 nM | 10000 to 100000 nM | < 1000 nM | < 1000 nM | –
33 | COc1cc(C(=O)NCC(O)(c2cc3c(c(-c4ccc(F)c(Cl)c4)n2)OCCC3(C)C)C(F)(F)F)ccc1OC1CCNC1=O (stereo not shown) [Compound 348] | – | 10000 to 100000 nM | < 1000 nM | < 1000 nM | –
34 | COc1ccc(C(O)(CNC(=O)c2cc(OC)c3ncccc3c2)C(F)(F)F)nc1-c1ccc(F)c(Cl)c1 (stereo not shown) [Compound 339] | – | 10000 to 100000 nM | < 1000 nM | < 1000 nM | –
35 | COc1cc(C(=O)NCC(O)(c2cc3c(c(-c4ccc(F)c(Cl)c4)n2)OCCC3(C)C)C(F)(F)F)ccc1OCC(N)=O (stereo not shown) [Compound 347] | – | 10000 to 100000 nM | < 1000 nM | < 1000 nM | –
36 | COc1ccc(C(=O)NCC(O)c2cccc(-c3csc4c(F)cccc34)n2)cc1OC (stereo not shown) [Compound 106] | – | 10000 to 100000 nM | < 1000 nM | – | 1000 to 50000 nM
37 | COc1cc(C(=O)NCC(O)(c2cc3c(c(-c4ccc(F)c(Cl)c4)n2)OCCC3(C)C)C(F)(F)F)ccc1OC1CC1 (stereo not shown) [Compound 345] | – | > 100000 nM | < 1000 nM | < 1000 nM | –
38 | COc1cc(C(=O)NCC(O)(c2ccc(OC)c(-c3ccc(F)c(Cl)c3)n2)C(F)(F)F)ccc1OC(C)C(N)=O (stereo not shown) [Compound 338] | – | 10000 to 100000 nM | < 1000 nM | < 1000 nM | –
39 | COc1cc(C(=O)NCC(O)(c2ccc(OC)c(-c3ccc(F)c(Cl)c3)n2)C(F)(F)F)ccc1OC[C@@H](C)O (stereo partly shown) [Compound 336] | – | 10000 to 100000 nM | < 1000 nM | < 1000 nM | –
